Test results: PubChem BioAssay AID206 (DTP/NCI, 2004)
Results filed as inconclusive are left out.

Test system: nude mice, HT29 intrarenal xenograft, tumor weight T/C
Experiment: NCI In Vivo Anticancer Drug Screen. Data for tumor model HT29;CX-1 Human Adenocarcinoma (MER+) (intrarenal inoculation) in NU/NU Swiss (nude) mice
Settings: endpoint: mean tumor weight change, higher = larger tumour
Method in brief: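 Compounds were given to mice carrying transplantable tumors; a vehicle-dosed group served as control. The endpoint measured in each group was compared as a T/C quotient.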

[1] = dose: 3.13 mg/kg/injection, schedule: Q01DX010 (sc), vehicle: Klucel (hydroxypropylcellulose) (HPC)
[2] = dose: 6.25 mg/kg/injection, schedule: Q01DX010 (sc), vehicle: Klucel (hydroxypropylcellulose) (HPC)
[3] = dose: 12.5 mg/kg/injection, schedule: Q01DX010 (sc), vehicle: Klucel (hydroxypropylcellulose) (HPC)
[4] = dose: 100.0 mg/kg/injection, schedule: Q04DX004 (sc), vehicle: saline with Tween-80
[5] = dose: 200.0 mg/kg/injection, schedule: Q04DX004 (sc), vehicle: saline with Tween-80
[6] = dose: 400.0 mg/kg/injection, schedule: Q04DX004 (sc), vehicle: saline with Tween-80
[7] = dose: 100.0 mg/kg/injection, schedule: Q01DX010 (sc), vehicle: saline with Tween-80
[8] = dose: 300.0 mg/kg/injection, schedule: Q04DX004 (sc), vehicle: saline with Tween-80
[9] = dose: 50.0 mg/kg/injection, schedule: Q04DX004 (sc), vehicle: saline with Tween-80

For `Cc1ccc2c(c1)C(=O)N(CC[P+](c1ccccc1)(c1ccccc1)c1ccccc1)C2=O`, the T/C [1] was 70 % of control, the T/C [2] was 37 % of control and the T/C [3] was 86 % of control. For the same compound, the T/C (dose: 25.0 mg/kg/injection, schedule: Q01DX010 (sc), vehicle: Klucel (hydroxypropylcellulose) (HPC)) was 75 % of control.

In the case of `C=Cc1cnc([N+](=O)[O-])n1C`, the T/C (dose: 150.0 mg/kg/injection, schedule: Q04DX004 (sc), vehicle: Klucel (hydroxypropylcellulose) (HPC)) is reported as 110 % of control and the T/C (dose: 300.0 mg/kg/injection, schedule: Q04DX004 (sc), vehicle: Klucel (hydroxypropylcellulose) (HPC)) is reported as 108 % of control.

With `CC1=C(/C=C/C(C)=C/C=C/C(C)=C/CO)C(C)(C)CCC1` the T/C [4] was 82 % of control, the T/C [5] was 94 % of control and the T/C [6] was 96 % of control. The T/C (dose: 800.0 mg/kg/injection, schedule: Q04DX004 (sc), vehicle: saline with Tween-80) was 121 % of control.

For `COC(=O)Nc1ccc(Cc2ccc(NC(=O)OC)cc2)cc1`, the T/C [7] was 26 % of control, the T/C (dose: 200.0 mg/kg/injection, schedule: Q01DX010 (sc), vehicle: saline with Tween-80) was 100 % of control and the T/C (dose: 400.0 mg/kg/injection, schedule: Q01DX010 (sc), vehicle: saline with Tween-80) was 152 % of control. For the same compound, the T/C (dose: 800.0 mg/kg/injection, schedule: Q01DX010 (sc), vehicle: saline with Tween-80) was 58 % of control.

In the case of `CCC1CN2C(=N1)c1ccccc1-c1cc(Cl)ccc12` (stereo not drawn), the T/C (dose: 12.5 mg/kg/injection, schedule: Q01DX010 (sc), vehicle: saline with Tween-80) is reported as 74 % of control, the T/C (dose: 25.0 mg/kg/injection, schedule: Q01DX010 (sc), vehicle: saline with Tween-80) is reported as 37 % of control and the T/C (dose: 50.0 mg/kg/injection, schedule: Q01DX010 (sc), vehicle: saline with Tween-80) is reported as 60 % of control. The T/C [7] was 89 % of control.

`Nc1ccc(C(OC(=O)c2cc3ccccc3c(Cc3c(O)c(C(=O)OC(c4ccc(N)cc4)(c4ccc(N)cc4)c4ccc(N)cc4)cc4ccccc34)c2O)(c2ccc(N)cc2)c2ccc(N)cc2)cc1` was tested, and the T/C (dose: 36.0 mg/kg/injection, schedule: Q04DX004 (sc), vehicle: saline with Tween-80) was 118 % of control, the T/C (dose: 72.0 mg/kg/injection, schedule: Q04DX004 (sc), vehicle: saline with Tween-80) was 70 % of control and the T/C (dose: 144.0 mg/kg/injection, schedule: Q04DX004 (sc), vehicle: saline with Tween-80) was 68 % of control. For the same compound, the T/C (dose: 150.0 mg/kg/injection, schedule: Q04DX004 (sc), vehicle: saline with Tween-80) was 94 % of control and the T/C [8] was 55 % of control.

`OC1OC2COC(c3ccccc3)OC2C(O)C1O` (stereo not drawn) was tested, and the T/C (dose: 200.0 mg/kg/injection, schedule: Q04DX004 (sc), vehicle: water) was 94 % of control, the T/C (dose: 400.0 mg/kg/injection, schedule: Q04DX004 (sc), vehicle: water) was 118 % of control and the T/C (dose: 800.0 mg/kg/injection, schedule: Q04DX004 (sc), vehicle: water) was 87 % of control. The T/C (dose: 1600.0 mg/kg/injection, schedule: Q04DX004 (sc), vehicle: water) was 118 % of control.

For `COc1cc2c[n+](C)c3c4cc5c(cc4ccc3c2cc1OC)OCO5`, the T/C [9] was 67 % of control, the T/C [4] was 48 % of control and the T/C [5] was 79 % of control. The T/C [6] was 60 % of control.

For `COc1cc(Cl)ccc1C`, the T/C [8] was 64 % of control, the T/C (dose: 600.0 mg/kg/injection, schedule: Q04DX004 (sc), vehicle: saline with Tween-80) was 90 % of control and the T/C (dose: 1200.0 mg/kg/injection, schedule: Q04DX004 (sc), vehicle: saline with Tween-80) was 76 % of control. For the same compound, the T/C (dose: 2400.0 mg/kg/injection, schedule: Q04DX004 (sc), vehicle: saline with Tween-80) was 84 % of control.

For `C[C@@H]1C[C@H]2[C@@H]3CCC4=CC(=O)C=C[C@]4(C)[C@@]3(F)[C@@H](O)C[C@]2(C)[C@@]1(O)C(=O)CO`, the T/C (dose: 1.56 mg/kg/injection, schedule: Q01DX010 (sc), vehicle: Klucel (hydroxypropylcellulose) (HPC)) was 62 % of control, the T/C [1] was 40 % of control and the T/C [2] was 42 % of control. For the same compound, the T/C [3] was 39 % of control.

`Nc1nnc[se]1` was tested, and the T/C [9] was 58 % of control, the T/C [4] was 33 % of control and the T/C [5] was 34 % of control. For the same compound, the T/C [6] was 23 % of control.
